Assay [1] deals with vGLUT1- bzw. vGLUT2-Transporter. The assay can be described thus: Glutamate uptake in rat crude synaptic vesicles ([3H]-glutamate). Format: biochemical, Ratte. The conditions noted are these: for vGLUT (Ratte), Hemmung [%]: test concentration not given. The source says:
Die agonistische bzw. antagonistische Wirkung der zu untersuchenden Verbindungen am vGLUT1- bzw. vGLUT2-Transporter der Spezies Ratte kann mit folgendem Assay bestimmt werden.
Glutamat-Uptake in Rattenvesikel ('rat crude synaptic vesicles')
Die Präparation von Vesikeln wurde aus Rattengehirn-Homogenaten (männlichen Ratten, Stamm Wistar SPF, 150-250 g Gewicht) durchgeführt gemäß Roseth et al. (1995) J. Neurochem. 65: 96-103, der sich auf Whittaker et al. (1964) Biochem J. 90, 293-303 und Fykse und Fonnum (1988) J. Neurochem. 50: 1237-1242 bezieht.
Hierzu wurden frisch entnommene Rattengehirne in 0,32 M Saccharose, 10 mM TRIS-maleat, 1 mM EGTA, pH 7,4 (10 ml/g Frischgewicht) mit einem Potter-Homogenisator (Fa. Braun/Melsungen; 5 Kolbenhübe bei 800 Upm) unter Eiskühlung homogenisiert und anschließend für 10 Minuten bei 3.000 g und 4°C zentrifugiert. Der resultierende Überstand wurde bei 20.000 g für 30 Minuten bei 4°C zentrifugiert. Das entstandene Pellet wurde dann im Verhältnis 1:3 mit 10 mM TRIS-maleate, 0,1 mM EGTA, pH 7,4 osmotisch geschockt und die Suspension bei 17000g für 30 min (4°C) zentrifugiert. Die im Überstand verbliebenen Vesikel wurden nun auf einen Dichtegradienten aus 0,6 M Saccharose in 10 mM TRIS-maleat, 1 mM EGTA, pH 7.4 und 0.4 M Saccharose in 10 mM TRIS-maleat, 1 mM EGTA, pH 7.4 geschichtet. Eine Ultrazentrifugation der Gradienten im Ausschwingrotor bei 65000g für 2h (4°C) schloss sich an. Die Vesikel-Fraktion wurde von der 0.4 M Saccharose-Bande isoliert und im Uptake-Versuch eingesetzt.
Die Substratlösung für den Uptake von [^3H]-Glutamat bestand aus ATP (neutralisiert mit Trisma base; 2 mM im Endansatz), Glutamat (0.5 mM im Endansatz) und ^3H-Glutamat (0.5 µCi im Endansatz). In 14 ml-Reagiergefäßen (Sarstedt, Artikel-Nr.: 798438) wurden jeweils 0,3 ml Gesamtvolumina (n=2/Probe) pipettiert in der folgenden Reihenfolge: 1.) 165 µl Inkubationspuffer (110 mM Kaliumtartrat, 10 mM TRIS-maleat, pH 7,4, 4 mM MgCl2), 2.) 10 µl Testsubstanz oder Vehikelkontrolle oder blank, 3.) 100 µl synaptische Vesikel. Es schloss sich eine Vorinkubation von 15 min bei 30°C an (nur blank-Ansätze befanden sich hierbei auf Eis). Danach wurde der Uptake durch Zugabe von 25 µl der oben beschriebenen Substratlösung gestartet. Die Reaktion wurde nach 5 min durch Zugabe von 7,0 ml eiskalter 150 mM KCl gestoppt. Anschließend wurden die Proben mit Hilfe des Brandel Cell Harvesters Typ M-24R über einen Membranfilter der Porengröße 0,8 µm abgesaugt und zweimal mit eiskalter 150 mM KCl nachgewaschen. Die Messung erfolgte am beta-Counter nach 15 h in 10 ml Szintillatorflüssigkeit (Filter Count).

Another assay concerns Sprague-Dawley Ratten. As to the kind of experiment: Neuropathic pain in the rat, Bennett model (chronic constriction injury, cold allodynia). Format: in vivo, Ratte. As to the method:
Die Untersuchung auf Wirksamkeit im neuropathischen Schmerz wurde im Bennett-Modell (chronic constriction injury; Bennett und Xie, 1988, Pain 33: 87-107) untersucht.
Sprague-Dawley Ratten mit einem Gewicht von 140-160 g werden unter Nembutal-Narkose mit vier losen Ligaturen des rechten nervus ischiaticus versehen. Die Tiere entwickeln an der vom geschädigten Nerv innervierten Pfote eine Überempfindlichkeit, die nach einer Erholungsphase von einer Woche über etwa vier Wochen mittels einer 4°C kalten Metallplatte quantifiziert wird (Kälte-Allodynie). Die Tiere werden für einen Zeitraum von 2 min. auf dieser Platte beobachtet und die Anzahl der Wegziehreaktionen der geschädigten Pfote wird gemessen. Bezogen auf den Vorwert vor Substanzapplikation wird die Substanzwirkung über einen Zeitraum von einer Stunde an vier Zeitpunkten (15, 30, 45, 60 min. nach Applikation) bestimmt und die resultierend Fläche unter der Kurve (AUD) sowie die Hemmung der Kälte-Allodynie zu den einzelnen Messpunkten in Prozent Wirkung zur Vehikelkontrolle (AUD) bzw. zum Ausgangswert (Einzelmesspunkte) ausgedrückt (%MPE). Die Gruppengröße beträgt n=10, die Signifikanz einer anti-allodynischen Wirkung wird über eine Varianzanalyse (repeated measures ANOVA; * p ≤ 0.05; Armitage und Berry, 1987, Stat. Methods in Medical Research, London: Blackwell Scientific Publications) bestimmt.

The subject of another assay is NMRI-Mäuse. As to the kind of experiment: Phenylquinone-induced writhing test in the mouse. Type of assay: in vivo. The following applies: 10 mg/kg. The source says: Die Untersuchung der Verbindungen der allgemeinen Formel (I) auf analgetische Wirksamkeit wurde im Phenylchinon-induzierten Writhing an der Maus, modifiziert nach I.C. Hendershot und J. Forsaith (1959) J. Pharmacol. Exp. Ther. 125, 237-240 durchgeführt. Die entsprechende Literaturbeschreibung wird hiermit als Referenz eingeführt und gilt als Teil der Offenbarung.
Dazu wurden männliche NMRI-Mäuse mit einem Gewicht von 25 bis 30 g verwendet. Gruppen von 10 Tieren pro Verbindungsdosis erhielten 10 Minuten nach intravenöser Gabe der zu untersuchenden Verbindungen 0,3 ml/Maus einer 0.02%igen wässrigen Lösung von Phenylchinon (Phenylbenzochinon, Fa. Sigma, Deisenhofen, Deutschland; Herstellung der Lösung unter Zusatz von 5 Gew.-% Ethanol und Aufbewahrung im Wasserbad bei 45°C) intraperitoneal appliziert. Die Tiere wurden einzeln in Beobachtungskäfige gesetzt. Mit Hilfe eines Drucktastenzählers wurde die Anzahl der schmerzinduzierten Streckbewegungen (sogenannte Writhingreaktionen = Durchdrücken des Körpers mit Abstrecken der Hinterextremitäten) 5 bis 20 Minuten nach der Phenylchinon-Gabe ausgezählt. Als Kontrolle wurden Tiere mit geführt, die Vehikellösung (i.v.) und Phenylchinon (i.p.)erhalten hatten. Alle Verbindungen wurden in der Standarddosierung von 10 mg/kg getestet. […]
A general note: An intraperitoneal irritant provokes the stretching counted in writhing tests.

A further assay deals with Mäusen (NMRI). The assay can be described thus: Formalin test in the mouse (second phase). The following applies: Maus i.p., 21,5 mg/kg. Format: in vivo. The source says: Die Untersuchung zur Bestimmung der antinociceptiven Wirkung der Verbindungen der allgemeinen Formel (I) wird im Formalin-Test an männlichen Mäusen (NMRI, 25 bis 35 g Körpergewicht, Iffa, Credo, Belgien) durchgeführt.
Im Formalin-Test werden gemäß D. Dubuisson et al., Pain 1977, 4, 161-174 die erste (frühe) Phase (0 bis 15 Minuten nach der Formalin-Injektion) und die zweite (späte) Phase (15 bis 60 Minuten nach der Formalin-Injektion) unterschieden. Die frühe Phase stellt als direkte Reaktion auf die Formalin-Injektion ein Modell für Akutschmerz dar, während die späte Phase als Modell für persistierenden (chronischen) Schmerz angesehen wird (T. J. Coderre et al., Pain 1993, 52, 259-285). Die entsprechenden Literaturbeschreibungen werden hiermit als Referenz eingeführt und gelten als Teil der Offenbarung. […]
Anschließend wird für einen Untersuchungszeitraum von drei Minuten in der zweiten (späten) Phase des Formalin-Tests (21 bis 24 Minuten nach der Formalin-Injektion) das nociceptive Verhalten durch Beobachtung der Tiere kontinuierlich erfasst. Die Quantifizierung des Schmerzverhaltens erfolgt durch Summation der Sekunden, in denen die Tiere in dem Untersuchungszeitraum ein Lecken und Beißen der betroffenen Pfote zeigen. […]

[2] abbreviates: compound freshly dissolved from the solid substance, read-out: vGLUT (Ratte), IC50-Fest.

Where two headings read alike, the source gives them in different places.

Turning to `Cc1ccc(S(=O)(=O)Nc2ccc(Cc3ccc(NS(=O)(=O)c4ccc(C)cc4)c(C(=O)O)c3)cc2C(=O)O)cc1` [Beispiel 9, 5,5'-Methylen-bis(2-(4-methylphenylsulfonamido)benzoesäure)], in assay [1], the “vGLUT (Ratte), Hemmung [%]” value was 47%.

Take “2,2'-(3,3'-Sulfonyl-bis-(4,1-phenylen)-bis-(azanediyl))-bis-(oxomethylen)-bis-(azanediyl)dibenzoesäure [Beispiel 10]”: the IC50 (as a rule, the point on the concentration scale where inhibition reaches its midpoint) in assay [1] (setting [2]) came out at 2350 nM. In addition, the “vGLUT (Ratte), Hemmung [%]” value in assay [1] was determined as 86%.

Take `Nc1ccccc1C(=O)Nc1ccc(-c2ccc(NC(=O)c3ccccc3N)c(C(=O)O)c2)cc1C(=O)O` [Beispiel 4, 4,4'-Bis-(2-amino-benzoylamino)-biphenyl-3,3'-dicarbonsäure]: the half-maximal inhibitory concentration (IC50) in assay [1] (setting [2]) was 93 nM; in assay [1] (read-out: vGLUT (Ratte), IC50) it was 43.2 nM. Besides, in assay [1], the “vGLUT (Ratte), Hemmung [%]” value is 99%.

Regarding `O=C(Nc1ccc(-c2ccc(NC(=O)c3ccccc3)c(C(=O)[O-])c2)cc1C(=O)[O-])c1ccccc1.[Na+].[Na+]` [Beispiel 12, 4,4'-Bis-(benzamido)-biphenyl-3,3'-dicarbonsäure, Dinatriumsalz], the half-inhibitory concentration (IC50) in assay [1] (setting [2]) was determined as 39 nM. The “vGLUT (Ratte), Hemmung [%]” value in assay [1] was 102%. Further, the “Bennett-Test Ratte; Hemmung [%]” value in the assay on Sprague-Dawley Ratten (Ratte, 0,2 mg/kg/5 ml (i.p)) is recorded as 38%@0,2 mg/kg/5 ml (i.p).

Regarding `Nc1ccccc1C(=O)Nc1ccc(-c2ccc(NC(=O)c3ccccc3N)c(C(=O)O)c2)cc1C(=O)O` [Beispiel 6, 4,4'-Bis-(2-aminobenzamido)biphenyl-3,3'-dicarbonsäure], the half-inhibitory concentration (IC50) amounted to 38 nM in assay [1] (setting [2]) and 89.7 nM in assay [1] (read-out: vGLUT (Ratte), IC50). In addition, the “vGLUT (Ratte), Hemmung [%]” value in assay [1] came out at 101%.

With `CC(=O)Nc1cc(C(=O)c2ccc(C(=O)O)c(NC(C)=O)c2)ccc1C(=O)O` [Beispiel 2, 4,4'-Carbonyl-bis(2-acetamidobenzoesäure)], the “vGLUT (Ratte), Hemmung [%]” value in assay [1] is recorded as 47%.

In the case of `O=C(O)c1cc(NC(=O)c2cccc3ccccc23)c(C(=O)O)cc1NC(=O)c1cccc2ccccc12` [Beispiel 7, 2,5-Bis-[(naphthalin-1-carbonyl)-amino]-terephthalsäure], in assay [1] (read-out: vGLUT (Ratte), IC50), the IC50 turned out to be 2340 nM. The “vGLUT (Ratte), Hemmung [%]” value in assay [1] is 78%.

For the compound `Nc1ccc(-c2ccc(N)c(C(=O)O)c2)cc1C(=O)O` [Beispiel 14, 4,4'-Bisaminobiphenyl-3,3'-dicarbonsäure, Dinatriumsalz], in assay [1] (setting [2]), the half-inhibitory concentration (IC50) was 47800 nM. The “vGLUT (Ratte), Hemmung [%]” value in assay [1] was determined as 24%.

Turning to `O=C(O)c1cc(-c2ccc(NC(=O)c3cccc4ccccc34)c(C(=O)O)c2)ccc1NC(=O)c1cccc2ccccc12` [Beispiel 5, 4,4'-Bis-[(naphthalin-1-carbonyl)-amino]-biphenyl-3,3'-dicarbonsäure], the “vGLUT (Ratte), Hemmung [%]” value in assay [1] stood at 50%.

In the case of `O=C(Cc1ccccc1)Nc1ccc(Cc2ccc(NC(=O)Cc3ccccc3)c(C(=O)O)c2)cc1C(=O)O` [Beispiel 1, 5,5'-Methylen-bis(2-(2-phenylacetamido)benzoesäure)], the IC50 in assay [1] (read-out: vGLUT (Ratte), IC50) stood at 9160 nM. Further, the “vGLUT (Ratte), Hemmung [%]” value in assay [1] was determined as 61%.

Consider `Nc1ccccc1C(=O)Nc1ccc(-c2ccc(NC(=O)c3ccccc3N)c(C(=O)O)c2)cc1C(=O)O` [Beispiel 13, 4,4'-Bis-(2-aminobenzamido)biphenyl-3,3'-dicarbonsäure, Dinatriumsalz], for which the concentration for half-maximal inhibition (IC50) in assay [1] (setting [2]) was determined as 600 nM. Moreover, in assay [1], the “vGLUT (Ratte), Hemmung [%]” value is reported as 96%.

`Cc1ccc(S(=O)(=O)Nc2ccc(-c3ccc(NS(=O)(=O)c4ccc(C)cc4)c(C(=O)O)c3)cc2C(=O)O)cc1` [Beispiel 11, 4,4'-Bis(tolyl-4-sulfonylamino)biphenyl-3,3'-dicarbonsäure]: the IC50 in assay [1] (setting [2]) is 1530 nM. Moreover, in assay [1], the “vGLUT (Ratte), Hemmung [%]” value is 97%.

For the compound `O=C(c1ccc(C(=O)O)c(NC(=O)c2cccc3ccccc23)c1)c1ccc(C(=O)O)c(NC(=O)c2cccc3ccccc23)c1` [Beispiel 3, 4,4'-Carbonyl-bis(2-(1-naphthamido)benzoesäure)], in assay [1] (read-out: vGLUT (Ratte), IC50), the IC50 amounted to 380 nM. Also, in assay [1], the “vGLUT (Ratte), Hemmung [%]” value worked out at 97%.

In the case of `Cc1ccc(S(=O)(=O)Nc2ccc(-c3ccc(NS(=O)(=O)c4ccc(C)cc4)c(C(=O)O)c3)cc2C(=O)O)cc1` [Beispiel 8, 4,4'-Bis-(4-methylphenylsulfonamid)biphenyl-3,3'-dicarbonsäure, Dinatriumsalz], the “Phenylchinon-Writhing-Test Maus i.v. [Anzahl Writhing-Reaktionen in 15 min. p. appl.]” value in the assay on NMRI-Mäuse (Kontrolle 9,1±0,41) is recorded as 7,8±1,16@10 mg/kg,. In addition, the “Anzahl Tiere mit ≤ 3 Writhing-Reaktionen” value with NMRI-Mäuse (Maus i.v.) is “(Anzahl Tiere mit ≤ 3 Writhing-Reaktionen: 1)”. For the same compound, the IC50 in assay [1] (setting [2]) came out at 490 nM. For the same compound, in assay [1], the “vGLUT (Ratte), Hemmung [%]” value is recorded as 92%. In the assay on Mäusen (NMRI), the “Formalin-Test Maus i.p.; Hemmung [%]” value is given as 51%@21,5 mg/kg. Also, the “Bennett-Test Ratte; Hemmung [%]” value with Sprague-Dawley Ratten (Ratte, 4,64 mg/kg (i.v.)) is reported as 37%@ 4,64 mg/kg (i.v.).

The values above are taken from patent EP2332529A1, “Substituted aromatic diamines as ligands of vesicular glutamate transporter 1 and 2 (vGLUT1 and vGLUT2)” (Grünenthal GmbH, priority 2009, dated 2011).
